Like-named read-outs stand apart in the source and are kept apart here. Where a SMILES comes first, the peptide text is derived from it. Where no end group is shown, it is not given here.
Target: T1, nidogen (Mus musculus, UniProt P10493)
T1 sequence (P10493 29-1245): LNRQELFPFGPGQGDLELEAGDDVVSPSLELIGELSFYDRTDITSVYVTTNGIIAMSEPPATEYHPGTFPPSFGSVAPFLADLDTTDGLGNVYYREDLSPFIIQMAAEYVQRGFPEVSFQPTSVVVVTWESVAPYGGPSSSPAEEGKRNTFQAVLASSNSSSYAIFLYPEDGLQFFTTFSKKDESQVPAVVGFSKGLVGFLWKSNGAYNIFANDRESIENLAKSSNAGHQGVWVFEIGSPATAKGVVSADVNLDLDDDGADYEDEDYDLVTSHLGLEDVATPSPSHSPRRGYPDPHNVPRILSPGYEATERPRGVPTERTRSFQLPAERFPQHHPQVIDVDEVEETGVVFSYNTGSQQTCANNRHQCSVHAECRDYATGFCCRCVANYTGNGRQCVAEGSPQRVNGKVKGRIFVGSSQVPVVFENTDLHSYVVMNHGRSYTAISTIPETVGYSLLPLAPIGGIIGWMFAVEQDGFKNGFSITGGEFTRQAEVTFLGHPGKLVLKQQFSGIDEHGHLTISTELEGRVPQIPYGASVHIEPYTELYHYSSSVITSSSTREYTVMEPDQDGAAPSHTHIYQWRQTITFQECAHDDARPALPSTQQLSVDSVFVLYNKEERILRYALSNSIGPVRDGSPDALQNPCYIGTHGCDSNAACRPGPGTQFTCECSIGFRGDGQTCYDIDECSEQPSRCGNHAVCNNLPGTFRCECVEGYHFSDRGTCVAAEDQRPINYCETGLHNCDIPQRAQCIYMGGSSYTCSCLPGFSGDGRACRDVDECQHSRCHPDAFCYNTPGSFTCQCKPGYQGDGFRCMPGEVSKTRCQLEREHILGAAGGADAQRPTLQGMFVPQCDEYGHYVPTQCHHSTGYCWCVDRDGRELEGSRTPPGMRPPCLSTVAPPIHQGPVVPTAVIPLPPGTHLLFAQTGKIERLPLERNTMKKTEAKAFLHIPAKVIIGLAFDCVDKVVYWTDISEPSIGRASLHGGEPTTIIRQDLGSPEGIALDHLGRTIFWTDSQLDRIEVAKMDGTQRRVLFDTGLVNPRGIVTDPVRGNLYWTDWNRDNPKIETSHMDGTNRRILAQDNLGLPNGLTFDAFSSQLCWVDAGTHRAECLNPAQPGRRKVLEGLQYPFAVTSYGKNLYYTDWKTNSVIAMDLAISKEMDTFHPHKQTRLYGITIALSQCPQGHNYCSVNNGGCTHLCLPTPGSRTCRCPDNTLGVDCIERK
Test: Radioligand competition assay: inhibition of 125I-laminin fragment P1 binding to nidogen
Conditions: for inhibitory activity in words: laminin-nidogen binding competition
Description: A radioligand competition assay was used for measurement of relative binding affinities (Mann K. et al. (1988), Eur. J. Biochem., 178, 71-80; Fox, J. W. et al. (1991), EMBO J., 10, 3137-3146). A fixed concentration of recombinant nidogen (0.2 nM) was incubated overnight at 4° C. with inhibitors at varying concentrations, followed by the addition of ^125 I-labeled laminin fragment P1 (0.01 nM; 10,000-20,000 c.p.m.) for the same incubation period. Bound and non-bound fragment P1 was then separated by antibodies against nidogen. Competitor concentrations causing 50% inhibition (IC50) were determined from dose-response profiles. […] IC50 values compared from different assays were normalized to a single fragment P1 value.

[1] = Table II, synthetic loops of EGF-like repeat 4 and smaller synthetic and proteolytic fragments, read-out: IC50 (inhibitory capacity)
[2] = Table III, amino acid replacements in heptapeptide NIDPNAV, read-out: IC50 (inhibitory capability for laminin-nidogen binding)
[3] = Table IV, recombinant mutants and chimeric structures of γ1III4, read-out: IC50 (inhibitory activity for laminin-nidogen binding)

## CC[C@H](C)[C@@H]1NC(=O)[C@@H](NC(=O)[C@@H](N)CCCCN)CSSC[C@@H](C(=O)N[C@@H](CC(=O)O)C(=O)O)NC(=O)[C@H](Cc2ccc(O)cc2)NC(=O)[C@H](Cc2ccccc2)NC(=O)CNC(=O)[C@H](C)NC(=O)[C@H]([C@@H](C)O)NC(=O)[C@H](CC(N)=O)NC(=O)[C@H](Cc2ccc(O)cc2)NC1=O [loop c, oxidized] (HELM PEPTIDE1{K.C.I.Y.N.T.A.G.F.Y.C.D}$PEPTIDE1,PEPTIDE1,2:R3-11:R3$$$V2.0)
[1]
  IC50: > 200000 nM
read-out: IC50
  IC50: 90000 to 200000 nM

## CC(C)C[C@H](NC(=O)[C@H](CS)NC(=O)[C@H](CCC(=O)O)NC(=O)CNC(=O)[C@@H](NC(=O)[C@H](CC(C)C)NC(=O)[C@H](CCCNC(=N)N)NC(=O)[C@H](CC(N)=O)NC(=O)[C@H](CS)NC(=O)[C@H](CC(N)=O)NC(=O)CNC(=O)[C@@H](NC(=O)[C@H](C)NC(=O)[C@H](CC(N)=O)NC(=O)[C@@H]1CCCN1C(=O)[C@@H](N)CC(=O)O)C(C)C)[C@@H](C)O)C(=O)O [E2, DPNAVGNCNRLTGECL] (H-DPNAVGNCNRLTGECL-OH; C-terminus assumed)
[1]
  IC50: 3000 nM

## CC(C)C[C@@H]1NC(=O)[C@@H]2CCCN2C(=O)[C@H](CC(N)=O)NC(=O)CNC(=O)[C@H](Cc2ccccc2)NC(=O)[C@H](Cc2ccccc2)NC(=O)CNC(=O)[C@H](CCC(=O)O)NC(=O)[C@H](CCCCN)NC(=O)[C@@H](NC(=O)[C@@H](N)CCCNC(=N)N)CSSC[C@@H](C(=O)N[C@@H](CCCCN)C(=O)O)NC(=O)[C@H](CCCCN)NC(=O)[C@H](CC(=O)O)NC(=O)[C@H](C)NC(=O)[C@@H]2CCCN2C(=O)[C@H](CC(N)=O)NC(=O)[C@@H]2CCCN2C(=O)[C@H](C)NC1=O [loop d, oxidized] (HELM PEPTIDE1{R.C.K.E.G.F.F.G.N.P.L.A.P.N.P.A.D.K.C.K}$PEPTIDE1,PEPTIDE1,2:R3-19:R3$$$V2.0; N-terminus and C-terminus assumed)
[1]
  IC50: > 90000 nM
  inhibitory activity in words: No inhibitory activity
read-out: IC50
  IC50: 90000 to 200000 nM

## NC(=O)CC[C@H](NC(=O)[C@H](CS)NC(=O)[C@@H]1CCCN1)C(=O)N[C@@H](CS)C(=O)N[C@@H](CC(N)=O)C(=O)O [E3, PCQCN] (H-PCQCN-OH; N-terminus assumed)
[1]
  IC50: > 96000 nM
  inhibitory activity in words: inactive

## NVDPSAV [NVDPSAV]
[2]
  IC50: > 180000 nM

## γ1III4ab3cd: recombinant chimera: loop a,b of repeat 4 with loop c,d of repeat 3 (PCQCNDNIDPNAVGNCNRLTGECLKCPTGTAGKRCELCDDGYFGDPLGSNGPVRLCR)
[3]
  IC50: 80 nM
Loop c replaced by loop c of a non-binding repeat, relative to the Tyr819 modification
  further decrease in activity: 30 fold
read-out: IC50
  IC50: 80 nM
Relative to synthetic loop a,b peptide
  higher inhibitory activity compared with loop a,b: 3 fold

## γ1III4Y819-A: recombinant γ1III4 with Tyr819 mutated to Ala
[3]
  IC50: 3 nM

## γ1III4Y819/825-A: recombinant γ1III4 with Tyr819 and Tyr825 mutated to Ala
[3]
  IC50: 1.5 nM
Reduced and alkylated under denaturing conditions versus disulfide-bonded form
  decrease in activity after reduction and alkylation: ~ 300 fold

## AVGNCNR [Th1, AVGNCNR]
[1]
  IC50: > 30000 nM
  inhibitory activity in words: inactive

## γ1III3ab4cd: recombinant chimera: loop a,b of repeat 3 with loop c,d of repeat 4 (PCPCPGGSSCAIVPKTKEVVCTHCIYNTAGFYCDRCKEGFFGNPLAPNPADKCK)
[3]
  IC50: 1100 nM

## NIDPNAV [NIDPNAV]
[1]
  IC50: 800 nM
read-out: IC50
  IC50: 800 nM

## γ1III4D800,N: recombinant γ1III4 with Asp800 mutated to Asn
[3]
  IC50: 1000 nM

## CC[C@H](C)[C@H](NC(=O)[C@H](CC(N)=O)NC(=O)[C@H](CC(=O)O)NC(=O)[C@H](CC(N)=O)NC(=O)[C@H](CS)NC(=O)[C@H](CCC(N)=O)NC(=O)[C@H](CS)NC(=O)[C@@H]1CCCN1)C(=O)N[C@@H](CC(=O)O)C(=O)N1CCC[C@H]1C(=O)N[C@@H](CC(N)=O)C(=O)N[C@@H](C)C(=O)N[C@H](C(=O)NCC(=O)N[C@@H](CC(N)=O)C(=O)N[C@@H](CS)C(=O)N[C@@H](CC(N)=O)C(=O)N[C@@H](CCCNC(=N)N)C(=O)N[C@@H](CC(C)C)C(=O)N[C@H](C(=O)NCC(=O)N[C@@H](CCC(=O)O)C(=O)N[C@@H](CS)C(=O)N[C@@H](CC(C)C)C(=O)O)[C@@H](C)O)C(C)C [loop a,b, non-oxidized] (H-PCQCNDNIDPNAVGNCNRLTGECL-OH; N-terminus and C-terminus assumed)
Relative to laminin fragment P1
  IC50 higher / less active than fragment P1: 5,000 fold

## NIDPNAVGN [NIDPNAVGN]
[1]
  IC50: 600 nM
read-out: IC50
  IC50: 600 nM

## γ1III4Y825-A: recombinant γ1III4 with Tyr825 mutated to Ala
[3]
  IC50: 0.06 nM
  inhibitory activity in words: without significant effect on inhibitory activity

## NIDPNA [NIDPNA]
[1]
  IC50: > 460000 nM

## γ1III4: recombinant nidogen binding EGF-like repeat 4 of laminin γ1 chain domain III, 56 residues [reference compound]
[3]
  IC50: 0.05 nM
read-out: IC50
  IC50: 0.05 nM

## IDPNAVGN [IOPNAVGN]
[1]
  IC50: 1600 nM

## γ1III4N802-S: recombinant γ1III4 with Asn802 mutated to Ser
Relative to wild-type γ1III4
  reduction in activity of mutant: ~ 100,000 fold

## CC[C@H](C)[C@@H]1NC(=O)[C@H](CC(N)=O)NC(=O)[C@H](CC(=O)O)NC(=O)[C@H](CC(N)=O)NC(=O)[C@@H]2CSSC[C@@H](C(=O)N[C@@H](CC(C)C)C(=O)O)NC(=O)[C@H](CCC(=O)O)NC(=O)CNC(=O)[C@H]([C@@H](C)O)NC(=O)[C@H](CC(C)C)NC(=O)[C@H](CCCNC(=N)N)NC(=O)[C@H](CC(N)=O)NC(=O)[C@H](CSSC[C@H](NC(=O)[C@@H]3CCCN3)C(=O)N[C@@H](CCC(N)=O)C(=O)N2)NC(=O)[C@H](CC(N)=O)NC(=O)CNC(=O)[C@H](C(C)C)NC(=O)[C@H](C)NC(=O)[C@H](CC(N)=O)NC(=O)[C@@H]2CCCN2C(=O)[C@H](CC(=O)O)NC1=O [loop a,b, oxidized] (HELM PEPTIDE1{P.C.Q.C.N.D.N.I.D.P.N.A.V.G.N.C.N.R.L.T.G.E.C.L}$PEPTIDE1,PEPTIDE1,2:R3-16:R3|PEPTIDE1,PEPTIDE1,4:R3-23:R3$$$V2.0)
read-out: IC50
  IC50: 400 nM

## LTGECL [T2, LTGECL]
[1]
  IC50: 12000 nM

## NVDPNAS [NVDPNAS]
[2]
  IC50: > 160000 nM

## γ1III4Y819/825-A, reduced: γ1III4Y819/825-A reduced and alkylated under denaturing conditions
[3]
  IC50: 430 nM

## CC[C@H](C)[C@H](NC(=O)[C@H](CC(N)=O)NC(=O)[C@H](CC(=O)O)NC(=O)[C@H](CC(N)=O)NC(=O)[C@H](CS)NC(=O)[C@H](CCC(N)=O)NC(=O)[C@H](CS)NC(=O)[C@@H]1CCCN1)C(=O)N[C@@H](CC(=O)O)C(=O)N1CCC[C@H]1C(=O)N[C@@H](CC(N)=O)C(=O)N[C@@H](C)C(=O)N[C@H](C(=O)NCC(=O)N[C@@H](CC(N)=O)C(=O)N[C@@H](CS)C(=O)N[C@@H](CC(N)=O)C(=O)N[C@@H](CCCNC(=N)N)C(=O)O)C(C)C [T1, PCQCNDNTDPNAVGNCNR]
  inhibitory activity in words: undiminished activity
